Measured values published in patent US8338422B2, “Indolin-2-ones and aza-indolin-2-ones” (Janssen Pharmaceutica NV, priority 2007, dated 2012).
Several values for one entry are separate records, joined by “and”; a condition that tells them apart may be missing. Equal values may be shown once.

Columns and labels:
PC-3 = assay: Cellular proliferation assay (Alamar blue), PC-3; format: cell-based; conditions: Homo sapiens, PC-3, 72 h, PC-3 cells, 72 hours with compound, 10% FCS, read-out: pIC50 PC-3 (converted)
Method in brief: (§1)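 Proliferation was assessed over 72 h of compound treatment, following 24 h of seeding without compound, under 10% FCS, 37° C. and 5% CO2. Fluorescent resazurin product was measured and compared with control cells.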

HCT-116 = assay: Cellular proliferation assay (Alamar blue), HCT-116; format: cell-based; conditions: Homo sapiens, HCT-116, 72 h, HCT-116 cells, 72 hours with compound, 10% FCS, read-out: pIC50 HCT-116 (converted)
Method in brief: as §1

CDK1/CyclinB (h) = CDK1/CyclinB (h) (Homo sapiens, UniProt P06493); assay: CDK1/CyclinB human kinase assay (FRET); format: biochemical; conditions: read-out: CDK1 pIC50 (converted)
Chain of CDK1/CyclinB (h) (P06493 whole entry): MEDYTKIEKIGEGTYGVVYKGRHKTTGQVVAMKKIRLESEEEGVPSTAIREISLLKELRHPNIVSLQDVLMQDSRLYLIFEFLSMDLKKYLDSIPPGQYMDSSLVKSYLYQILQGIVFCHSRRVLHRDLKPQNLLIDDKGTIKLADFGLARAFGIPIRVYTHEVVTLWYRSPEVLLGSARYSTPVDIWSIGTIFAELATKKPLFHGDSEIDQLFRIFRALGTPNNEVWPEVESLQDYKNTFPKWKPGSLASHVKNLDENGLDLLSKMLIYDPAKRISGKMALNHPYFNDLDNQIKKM
Chain of CDK1/CyclinB (h) (P14635 whole entry partner): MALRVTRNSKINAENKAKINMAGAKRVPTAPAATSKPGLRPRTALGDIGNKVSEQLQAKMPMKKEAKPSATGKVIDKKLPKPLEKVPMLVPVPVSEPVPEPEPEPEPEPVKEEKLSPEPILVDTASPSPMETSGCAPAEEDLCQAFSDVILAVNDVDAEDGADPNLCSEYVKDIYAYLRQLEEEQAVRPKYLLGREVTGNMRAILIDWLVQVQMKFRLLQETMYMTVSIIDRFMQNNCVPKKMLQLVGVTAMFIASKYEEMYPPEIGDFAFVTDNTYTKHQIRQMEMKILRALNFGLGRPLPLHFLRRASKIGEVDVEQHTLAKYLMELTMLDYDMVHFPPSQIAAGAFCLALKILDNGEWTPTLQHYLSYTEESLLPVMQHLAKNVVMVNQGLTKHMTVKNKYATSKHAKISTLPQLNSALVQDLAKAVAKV
Method in brief: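 Z'-LYTE FRET format: 0.2 μg/ml enzyme with 2 μM Ser/Thr peptide 12 and 10 μM ATP in 50 mM Hepes pH 7.5, 10 mM MgCl2, 1 mM EGTA, 0.01% Brij-35, 60 min at room temperature. Protease development 60 min; coumarin/fluorescein emission ratio (460/538 nm, excitation 390 nm) reports phosphorylation.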

AuroraB (h) = AuroraB (h) (Homo sapiens, UniProt Q96GD4); assay: Aurora-B human kinase assay (SPA); format: biochemical; conditions: read-out: AuroraB pIC50 (converted)
Chain of AuroraB (h) (Q96GD4 whole entry): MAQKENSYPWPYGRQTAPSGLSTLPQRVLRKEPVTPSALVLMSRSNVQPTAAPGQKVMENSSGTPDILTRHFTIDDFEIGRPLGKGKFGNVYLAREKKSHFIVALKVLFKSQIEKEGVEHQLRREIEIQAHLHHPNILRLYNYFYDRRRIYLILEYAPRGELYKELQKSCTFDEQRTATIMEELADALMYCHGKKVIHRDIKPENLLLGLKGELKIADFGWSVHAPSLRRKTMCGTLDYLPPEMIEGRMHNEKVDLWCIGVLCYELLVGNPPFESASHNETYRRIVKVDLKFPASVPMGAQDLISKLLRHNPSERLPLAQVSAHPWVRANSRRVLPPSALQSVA
Method in brief: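 Scintillation proximity assay: AuroraB (h) at 0.5 μg/ml with 3 μM biotinylated peptide, 0.5 μM ATP and 2.2 nM [γ-33P]ATP in 60 mM Hepes pH 7.5, 3 mM MgCl2, 3 mM MnCl2, 2 mM DTT. 60 min at room temperature, EDTA stop, streptavidin PVT beads read on Leadseeker.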

PLK4 (h) = PLK4 (h) (Homo sapiens, UniProt O00444); assay: PLK-4 human kinase assay (SPA); format: biochemical; conditions: read-out: PLK4 pIC50 (converted)
Chain of PLK4 (h) (O00444 whole entry): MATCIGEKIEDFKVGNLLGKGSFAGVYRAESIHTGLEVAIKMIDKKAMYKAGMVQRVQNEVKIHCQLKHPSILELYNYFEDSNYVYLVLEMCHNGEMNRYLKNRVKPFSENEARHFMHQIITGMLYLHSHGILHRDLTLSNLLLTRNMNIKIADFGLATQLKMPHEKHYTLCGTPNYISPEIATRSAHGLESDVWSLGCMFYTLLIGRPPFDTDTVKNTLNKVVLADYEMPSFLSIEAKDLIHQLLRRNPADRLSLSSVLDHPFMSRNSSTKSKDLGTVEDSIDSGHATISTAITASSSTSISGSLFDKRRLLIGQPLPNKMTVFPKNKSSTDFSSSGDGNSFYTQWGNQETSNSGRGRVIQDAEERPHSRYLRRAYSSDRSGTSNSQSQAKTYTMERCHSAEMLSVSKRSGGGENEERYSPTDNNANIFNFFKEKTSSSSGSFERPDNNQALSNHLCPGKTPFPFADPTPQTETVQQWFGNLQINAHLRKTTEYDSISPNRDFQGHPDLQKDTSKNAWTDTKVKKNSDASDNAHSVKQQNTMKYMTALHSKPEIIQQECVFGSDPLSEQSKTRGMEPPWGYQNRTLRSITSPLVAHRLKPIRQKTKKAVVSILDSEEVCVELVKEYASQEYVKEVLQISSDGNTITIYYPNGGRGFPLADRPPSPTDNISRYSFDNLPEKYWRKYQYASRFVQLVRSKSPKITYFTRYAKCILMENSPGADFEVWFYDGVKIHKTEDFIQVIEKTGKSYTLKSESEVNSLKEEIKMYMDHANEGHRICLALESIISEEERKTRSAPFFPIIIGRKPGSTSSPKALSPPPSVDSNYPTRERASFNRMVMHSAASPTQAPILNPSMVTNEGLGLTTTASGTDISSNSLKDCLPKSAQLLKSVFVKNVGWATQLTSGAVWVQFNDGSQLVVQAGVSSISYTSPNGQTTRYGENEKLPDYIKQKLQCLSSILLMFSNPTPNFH
Method in brief: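 Radiometric readout: 33P-labelled peptide captured on streptavidin SPA beads after EDTA stop, imaged by Leadseeker. Reaction ran 60 min at room temperature in Hepes pH 8.0 buffer. It contained 1 μM ATP with 2 nM [γ-33P]ATP, 10 μM biotinylated peptide and PLK4 (h) at 19 μg/ml.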

MCF-7 = assay: Cellular proliferation assay (Alamar blue), MCF-7; format: cell-based; conditions: Homo sapiens, MCF7, MCF-7 cells, 72 hours with compound, 10% FCS, read-out: pIC50 MCF-7 (converted)
Procedure: (§2) […] functional properties of these compounds was tested in cellular proliferation assays on a panel of different cell lines in the presence of 10% FCS serum (37° C. and 5% (v/v) CO2). In a first step these cells were seeded and incubated for 24 hours in the absence of compound. In the second step the cells were incubated for 72 hours with the compounds to be tested for 72 hours. The viable cell number was finally assessed in a standard Alamar blue cell viability assay.
(§3) The viable cell number was assessed by incubation for either 4 h (HCT-116, H1299, H460) 6 h (SKOV3, HT29, U87-MG, Colo205) or 24 h (A2780, PC3, MDA-MB-231, A549, MCF-7) with Alamar blue (Resazurin 9 μg/ml, K-Ferrocyanide 90 μM K-Ferricyanide 90 μM) and the converted fluorescent product was quantified on a fluorescent plate readed (544 nm/590 nm). Effect of the compounds is calculated as of on control cells.

SKOV3 = assay: Cellular proliferation assay (Alamar blue), SKOV3; format: cell-based; conditions: Homo sapiens, SK-OV-3, SKOV3 cells, 72 hours with compound, 10% FCS, read-out: pIC50 SKOV3 (converted)
Method in brief: as §1

MDA/MB231 = assay: Cellular proliferation assay (Alamar blue), MDA/MB231; format: cell-based; conditions: Homo sapiens, MDA-MB-231, 72 h, MDA/MB231 cells, 72 hours with compound, 10% FCS, read-out: pIC50 MDA/MB231 (converted)
Method in brief: as §1

H460 = assay: Cellular proliferation assay (Alamar blue), H460; format: cell-based; conditions: Homo sapiens, NCI-H460, H460 cells, 72 hours with compound, 10% FCS, read-out: pIC50 H460 (converted)
Procedure: as §2, §3

DU-145 = assay: Cellular proliferation assay (Alamar blue), DU-145; format: cell-based; conditions: Homo sapiens, DU-145 cells, 72 hours with compound, 10% FCS, read-out: pIC50 DU-145 (converted)
Procedure: as §2, §3

HT-29 = assay: Cellular proliferation assay (Alamar blue), HT-29; format: cell-based; conditions: Homo sapiens, HT-29 cells, 72 hours with compound, 10% FCS, read-out: pIC50 HT-29 (converted)
Procedure: as §2, §3

Structure (SMILES) | IC50 (PC-3) [nM] | IC50 (HCT-116) [nM] | IC50 (CDK1/CyclinB (h)) | IC50 (AuroraB (h)) | IC50 (PLK4 (h)) | IC50 (MCF-7) [nM] | IC50 (SKOV3) [nM] | IC50 (MDA/MB231) [nM] | IC50 (H460) [nM] | IC50 (DU-145) [nM] | IC50 (HT-29) [nM]
COc1ccc2cc1OCCCC(=O)N(C)CCCNc1ncnc3c1/C(=C/N2)C(=O)N3 [Compound 9] | 457 | 457 | 132 nM and 120 nM | 50.1 nM and 51.3 nM | 55 nM and 52.5 nM | < 302 | 339 | 1380 | 372 | < 302 | 525
COc1ccc2cc1OCCCCCC(=O)N1CCN(CC1)c1ncnc3c1/C(=C/N2)C(=O)N3 [Compound 18] | 2340 | > 10000 | > 10000 nM | > 10000 nM | 4790 nM | 5750 | 2090 | > 10000 | > 10000 | > 10000 | > 10000
COc1ccc2cc1OCCCC(=O)N(C)CCCN(C)c1ncnc3c1/C(=C/N2)C(=O)N3 [Compound 31] | 1660 | 1580 | 4680 nM | 1380 nM and 1580 nM | 525 nM | 575 | 1350 | 1910 | 1000 | 1230 | 2820
